In US20110076274A1, “MATERIALS AND METHODS RELATING TO A G-PROTEIN COUPLED RECEPTOR” (priority 2008, published 2011):
Like-named read-outs stand apart in the source and are kept apart here.

Legend:
[1] = test system: human osteoclasts; assay: Cell polarisation (F-actin rings) and resorption by human osteoclasts; format: cell-based
Text: Number of F-actin rings in osteoclast cultures, expressed as percentage of vehicle (0.1% DMSO) control±SEM (n=4-7 experiments with five replicates for each). ** P<0.01 compared to control, ANOVA with Dunnett's multiple comparison test.

[2] = test system: MDA-MB231 subclone; assay: Boyden chamber chemotaxis assay, Protocol I (ligand concentration gradient); format: cell-based, human; conditions: serum starved cells; test drug (1 μM per Protocol I) in 0.01% DMSO in lower wells; 4 hours
Protocol: 10 μl of the resulting cell suspension was transferred to a haemocytometer and the number of cells per ml of suspension was calculated from the counted cell number. Serum free medium was added to the cell suspension in a quantity necessary to bring the suspension to a cell number of 1×10^6 cells per ml. […]

[3] = biological target: T1, GPR55 (Homo sapiens, UniProt Q9Y2T6); conditions: cited from earlier work; for EC50: source per value in footnotes (Johns 2007, Ryberg 2007, Brown 2007), read-out: GTPγS EC50
[4] = biological target: T1, GPR55; conditions: cited from earlier work
[5] = biological target: T2, CB2 (Homo sapiens, UniProt P34972); conditions: cited from earlier work
[6] = test system: MDA-MB231; assay: Boyden chamber chemotaxis assay, CBD as chemoattractant (FIG. 8); format: cell-based, human; conditions: serum starved cells; CBD with 0.01% DMSO
Protocol: (§1) Cells used for all chemotaxis assays were bathed in their respective serum-free media and incubated for 19 hours prior to experimentation. The serum starved cells were washed with 5 ml PBS and dissociated from their growth plate using 5 ml of non-enzymatic cell dissociation solution. 5 ml of the respective serum free medium was added after dissociation of the cells, and the cell suspension was transferred to a universal container and centrifuged at 2000 rpm for 5 minutes. The supernatant fluid was discarded and the remaining cell pellet was re-suspended in 2 ml of serum free medium.
(§2) 10 μl of the resulting cell suspension was transferred to a haemocytometer and the number of cells per ml of suspension was calculated from the counted cell number. Serum free medium was added to the cell suspension in a quantity necessary to bring the suspension to a cell number of 1×10^6 cells per ml.
Solutions of 10% FBS (with 0.01% DMSO vehicle), 0.01% DMSO vehicle control and 1 μM of test drug (O-1602 in 0.01% DMSO vehicle), were prepared. […]
(§3) Migrated cells were counted using a Leitz microscope. Individual wells and their borders were visualised using a 10× objective lens and cells were then counted using a 40× objective lens. Cells found in one quarter of three non-overlapping 40× fields within each migration well were counted. The same fields were chosen in every well counted. […]

[7] = test system: MDA-MB231 cells; assay: Boyden chamber migration towards FBS, Protocol II (pre-treatment of cells); format: cell-based, human; conditions: for Tumour cell chemotaxis (migration) to FBS after pre-incubation: 1 μM pre-incubation 30 minutes, 10% FBS, no compound gradient, 4 hours
Protocol: as §1, §2
(§4) Two aliquots of the 1×10^6 cells/ml, cell suspension were prepared, and quantities of 0.1% DMSO and […] (both with 0.1% DMSO vehicle) were added to one aliquot each, to bring the cell suspension concentrations to 0.01% DMSO and 1 μM test compound (with 0.01% DMSO vehicle). The cell suspensions were incubated with each compound for 30 minutes at 37° C. in 5% CO2. […]
as §3
The results for all assays done with each individual drug type were pooled by calculating the mean number of cells migrating in 0.01% DMSO vehicle control wells. The cell number for each individual well was then expressed as a percentage of the vehicle mean.

[8] = test system: MDA-MB-231 cells; assay: Cultrex Cell Invasion Assay towards FBS; format: cell-based, human; conditions: CBD 1 μM pre-incubation; 24 hours
Protocol: (§5) Cell were cultured to 80% confluence then serum starved overnight prior to beginning the assay. On ice, a 0.5×BME stock solution was prepared from the 5× stock in a conical tube and inverted to mix. 100 μl of BME stock solution was aliquoted into each well of the 24 well plate and the chamber incubated at 37° C. overnight. The following morning cells were harvested, washed once using 1× wash buffer, counted, and re-suspended to a density of 5×10^5 cells ml^−1. The top chamber was then carefully aspirated, taking care not to let chambers dry out, and 100 μl of cells per well added to the top chamber. 500 μl of media per well (with or without chemoattractant) was then added to the lower wells of the chamber. The chamber was then assembled and incubated at 37° C. in a humidified environment for 24 hours. The following day the upper chamber was carefully aspirated and washed with 100 μl of 1× wash buffer, and lower wells washed with 500 μl of wash buffer. 12 μl of Calcein-AM solution was added to 12 mL of cell dissociation fluid, and 500 μl of this solution added to the lower chamber. The chamber was then re-assembled and incubated at 37° C. for one hour. The upper chamber was then removed, and dissolved Calcein-AM was read at 485 nm excitation, 520 nm emission.

[9] = test system: control (empty vector transfected) MCF7 cells; assay: Cultrex Cell Invasion Assay, empty vector transfected MCF7; format: cell-based, human
Protocol: as §5, with “emission. […]” for “emission.”

[10] = test system: GPR55 over-expressing MCF7 cells; assay: Cultrex Cell Invasion Assay, GPR55 over-expressing MCF7; format: cell-based, human
Protocol: as §5, with “emission. […]” for “emission.”

[11] = test system: MDA-MB-231 cells; assay: alamarBlue assay of cell viability; format: cell-based, human
[12] = biological target: T3, CB1 (Homo sapiens, UniProt P21554); conditions: cited from earlier work
[13] = biological target: T1, GPR55; conditions: footnote of Table 1
[14] = biological target: T3, CB1; conditions: Ryberg et al., 2007, read-out: GTPγS EC50; cited from earlier work
[15] = biological target: T2, CB2; conditions: Ryberg et al., 2007, read-out: GTPγS EC50; cited from earlier work
[16] = test system: vector transfected MCF7 cells; assay: Boyden chamber chemotaxis assay, vector transfected MCF7; format: cell-based, human; conditions: LPI pre-incubation 1 μM
Protocol: as §1, §2, §4

[17] = test system: MCF7 cells transiently over-expressing GPR55; assay: Boyden chamber chemotaxis assay, GPR55 over-expressing MCF7; format: cell-based, human; conditions: LPI pre-incubation 1 μM
Protocol: as §1, §2, §4

[18] = biological target: T1, GPR55; conditions: Oka et al., 2007, read-out: ERK Phosphorylation EC50; cited from earlier work
[19] = test system: MG-63 cells; assay: Endocannabinoid levels in MG-63 cells treated with PTH; format: cell-based, human
Protocol: Cells were washed in PBS and treated for 90 minutes with 200 ug/ml LPS. Values represent the mean±SEM from 3 separate donors. […] Levels of anandamide were undetectable in two control samples which precludes statistical analysis. (C) 2-AG levels in MG-63 cells treated with PTH. Cells were treated for the times indicated with 40 nM or 100 nM PTH. The results are expressed as percentage of control and are the means±SEM (n=2-4 experiments, duplicate samples for each), ** P<0.01 compared to control, ANOVA with Dunnett's multiple comparison test.

T3 sequence (P21554 whole entry, species assumed): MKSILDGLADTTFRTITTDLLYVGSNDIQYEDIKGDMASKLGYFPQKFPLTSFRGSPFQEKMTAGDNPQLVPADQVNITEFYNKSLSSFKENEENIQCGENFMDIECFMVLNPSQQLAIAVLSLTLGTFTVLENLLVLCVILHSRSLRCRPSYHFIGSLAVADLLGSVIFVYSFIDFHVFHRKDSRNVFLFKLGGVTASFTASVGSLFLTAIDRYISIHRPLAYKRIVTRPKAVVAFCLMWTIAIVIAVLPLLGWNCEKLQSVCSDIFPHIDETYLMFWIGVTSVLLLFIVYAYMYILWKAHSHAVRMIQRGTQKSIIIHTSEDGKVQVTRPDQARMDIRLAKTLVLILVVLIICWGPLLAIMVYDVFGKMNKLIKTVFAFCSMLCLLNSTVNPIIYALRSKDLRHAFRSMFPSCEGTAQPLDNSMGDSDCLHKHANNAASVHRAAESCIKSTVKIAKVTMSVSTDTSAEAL
T1 sequence (Q9Y2T6 whole entry): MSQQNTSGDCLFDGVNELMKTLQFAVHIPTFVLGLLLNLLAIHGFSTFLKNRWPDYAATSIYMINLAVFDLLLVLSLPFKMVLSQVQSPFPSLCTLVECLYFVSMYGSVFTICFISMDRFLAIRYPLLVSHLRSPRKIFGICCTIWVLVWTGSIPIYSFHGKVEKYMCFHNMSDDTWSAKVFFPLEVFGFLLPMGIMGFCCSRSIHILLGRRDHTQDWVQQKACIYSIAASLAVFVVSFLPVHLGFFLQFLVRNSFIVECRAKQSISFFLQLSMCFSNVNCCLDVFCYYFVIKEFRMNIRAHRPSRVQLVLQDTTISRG
T2 sequence (P34972 whole entry, species assumed): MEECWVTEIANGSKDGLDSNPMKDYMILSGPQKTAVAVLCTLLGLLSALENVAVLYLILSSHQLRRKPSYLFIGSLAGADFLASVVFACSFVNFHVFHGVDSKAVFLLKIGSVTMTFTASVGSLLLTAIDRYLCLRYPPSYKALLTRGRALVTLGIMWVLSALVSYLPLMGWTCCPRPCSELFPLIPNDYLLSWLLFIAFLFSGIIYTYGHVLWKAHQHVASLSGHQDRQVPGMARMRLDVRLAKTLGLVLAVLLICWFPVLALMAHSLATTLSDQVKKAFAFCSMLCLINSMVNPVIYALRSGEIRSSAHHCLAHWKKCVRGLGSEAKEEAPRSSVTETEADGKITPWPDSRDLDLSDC

## CCCCC/C=C\C/C=C\C/C=C\C/C=C\CCCC(=O)OC(CO)CO [2-AG]
[1]; 10 nM and 100 nM
  Resorptive activity: significant increase
[1]; 10 nM and 100 nM, 5 days
  Cell polarisation i.e. number of F-actin rings: significant increase
[1]; 1 μM
  Stimulatory effect on polarisation and resorption at higher concentration: lost

## CCCCC/C=C\C/C=C\C/C=C\C/C=C\CCCC(=O)NCCO [AEA, anandamide]
[2]
  Cell migration compared to vehicle control (chemoattractant effect): significant increase in cell number
[1]; 10 nM to 1 μM
  F-actin ring number: did not result in a significant change
  Resorption: significantly stimulate
[3]
  EC50: 18 nM
[4]
  Drug action on receptors: GPR55: Agonist
[5]
  Drug action on receptors: CB2: Agonist

## C=C(C)[C@@H]1CCC(C)=C[C@H]1c1c(O)cc(CCCCC)cc1O [CBD, Cannabidiol]
[6]
  Tumour cell migration compared to control (chemoattractant effect): no effect on tumour cell migration
[7]
  Tumour cell chemotaxis (migration) to FBS after pre-incubation: significantly inhibits
[7]; co-incubation LPI (1 μM) combined with CBD (1 μM)
  Effect on LPI-increased chemotaxis to FBS: prevented
[8]
  Tumour cell invasion towards FBS after pre-incubation: significantly attenuated
[9]
  Basal invasion: no effect
[10]
  FBS-induced invasion: significantly inhibited
[11]; 1 μM treatment for 24 hours (invasion assay)
  Cytotoxic action (cell viability): no cytotoxic action
[11]; concentrations up to 10 μM, treatment for 4 hours (migration assay)
  Cytotoxic action (cell viability): no cytotoxic action
[3]; antagonist, Brown, 2007, read-out: GTPγS IC50
  IC50: 350 nM
[4]
  Drug action on receptors: GPR55: Antagonist^2
[12]
  Drug action on receptors: CB1: Antagonist^7

## CCCCCCC(C)(C)c1ccc([C@@H]2C[C@H](O)CC[C@H]2CCCO)c(O)c1 [CP55940, (−)-cis-3-[2-hydroxy-4-(1,1-dimethylheptyl)phenyl]-trans-4-(3-hydroxypropyl)cyclohexanol]
[4]
  Drug action on receptors: GPR55: agonists

## CCCn1c(C)c(C(=O)c2cccc3ccccc23)c2ccccc21 [JWH015]
[3]
  EC50: 4 nM
[4]
  Drug action on receptors: GPR55: Agonist

## C=C(C)[C@@H]1CCC(C)=C[C@H]1c1c(C)cc(O)cc1O [O-1602]
[13]
  Selectivity for GPR55 versus CB1 and CB2 (in words): Compounds such as O-1602 and LPI are therefore thought to be relatively selective GPR55 agonists, whilst AEA has a broad specificity.
[2]
  Cell migration compared to vehicle control (chemoattractant effect): significant increase in cell migration
[14]
  EC50: > 30000 nM
[15]
  EC50: > 30000 nM
[4]
  Drug action on receptors: GPR55: Agonist
[12]
  Drug action on receptors: CB1: No action^3
[5]
  Drug action on receptors: CB2: No action

## CCCCCc1cc(O)c2c(c1)OC(C)(C)[C@@H]1CCC(C)=C[C@@H]21 [THC, Δ-9-Tetrahydrocannabinol]
[4]
  Drug action on receptors: GPR55: agonists

## lysophosphatidylinositol [LPI]
[13]
  Selectivity for GPR55 versus CB1 and CB2 (in words): Compounds such as O-1602 and LPI are therefore thought to be relatively selective GPR55 agonists, whilst AEA has a broad specificity.
[7]
  Tumour cell chemotaxis (migration) to FBS after pre-incubation: significantly increases
[16]
  Migration towards FBS: unaffected
[17]
  FBS-induced migration: enhanced
[18]
  EC50: ~200 nM
[4]
  Drug action on receptors: GPR55: Agonist^6

B1: PTH: PTH, 40 nM or 100 nM, activates the PTH receptor (peptide, UniProt P01270 32-115, looked up)
Parathyroid hormone: SVSEIQLMHNLGKHLNSMERVEWLRKKLQDVHNFVALGAPLAPRDAGSQRPRKKEDNVLVESHEKSLGEADKADVNVLTKAKSQ
modifications: Parathyroid hormone
[19]; prolonged treatment with 40 nM or 100 nM PTH
  Levels of 2-AG detected in MG-63 cells: significant increase
[19]; prolonged treatment with PTH, data not shown
  Levels of anandamide detected in MG-63 cells: no change
